Test results reported in patent US20240109900A1, “AZABICYCLIC SHP2 INHIBITORS” (IRBM S.P.A., priority 2021, published 2024).
pIC50: −log10 of the molar value. Where two headings read alike, the source gives them in different places.

Experiments:
[1] = target: SHP-2 enzyme (Met1-Leu525) (Homo sapiens (Human), UniProt Q06124); experiment: SHP2 inhibition enzymatic assay; format: biochemical; conditions: 0.5 nM SHP-2 activated by 500 nM IRS1 peptide, 75 μM DiFMUP substrate; read-out: SHP2wt-IC50
Procedure: The assay was performed as described in YP Chen et al, Nature (535)2016. Assay volume of 20 μL/well was assembled in 384 well black polystyrene low-binding microplates (Greiner), using the following buffer: 60 mM HEPES pH 7.2, 75 mM NaCl, 75 mM KCl, 1 mM EDTA pH 8, 0.05% tween-20, 5 mM DTT. The SHP-2 enzyme (synthetized by Origene, Met1-Leu525, cat #TP750155) was used at a final concentration of 0.5 nM. The enzyme was activated by 500 nM IRS1 peptide (sequence: H2N-LN(pY)IDLDLV(dPEG8)LST(pY)ASINFQK-amide SEQ ID No. 1) and incubated with 75 μM DiFMUP (Sigma) as substrate.
Briefly, DMSO serially diluted testing compounds were transferred to the bottom of the assay plate. SHP2 was then added together with the IRS1 peptide. 30 min post incubation, the DiFMUP substrate was added to the reaction and incubated 30 min at room temperature. Finally 5 μL of 160 μM bpV (Potassium bisperoxo[1,10-phenanthroline]oxovanadate [V], Sigma) were added to stop and quench the reaction. The fluorescence was detected by a microplate reader (Envision, PerkinElmer) according to the DiFMUP excitation and emission wavelength. The lower the fluorescence the higher the SHP2 inhibition. […] The percentage inhibition is fitted against the compound dilutions with a four-parameter logistic regression. The inflection point (i.e. the concentration at which half-maximal inhibition is achieved) is the IC50.

[2] = test system: ERK phosphorylation in KYSE-520 cells; experiment: Phospho-ERK cellular assay; format: cell-based; conditions: KYSE-520 cells, 2 h at 37° C., phospho-ERK1/2 (Thr202/Tyr204) TR-FRET, read-out: PERK IC50
Procedure: ERK phosphorylation was detected using the “Advanced phospho-ERK1/2 (Thr202/Tyr204)” TR-FRET kit (Cisbio, Cat #64AERPEG/H), following the manufacturer reagents and instructions.
Briefly, 20.000/well KYSE-520 cells (DSMZ ACC 371) were plated in 6 μL RPMI-1640 (Invitrogen) growth medium, into 384 white low-volume high base TC microplates (Greiner). After an overnight incubation, cells were treated with DMSO serial diluted compounds and incubated for 2 h at 37° C. After incubation, 2 μL/well of 4×Lysis Buffer (Cisbio 64KL1FDF), were added and incubated with cells for 30 min on gentle shaking. Finally, lysates were added with 2 μL/well of Eu cryptate (donor) and D2 (acceptor) conjugated antibodies (as provided by the Cisbio kit #64AERPEG/H) diluted 1:100 in Detection Buffer (as provided by the Cisbio kit #64AERPEG/H). Plates were then sealed and incubated at room temperature in the dark. After an overnight incubation, the TR-FRET signal was detected on a suitable reader (Envision, PerkinElmer). The lower the TR-FRET signal the higher the higher the SHP2 inhibition in cells.
The activity of each compound dilution was calculated as percentage between vehicle DMSO treated cells and no cells, 0% inhibition and 100% inhibition respectively. The percentage activity is fitted against the compound dilutions with a four-parameter logistic regression. The inflection point (i.e. the concentration at which half-maximal inhibition is achieved) is the IC50.

Sequence of SHP-2 enzyme (Met1-Leu525) (Q06124 1-525): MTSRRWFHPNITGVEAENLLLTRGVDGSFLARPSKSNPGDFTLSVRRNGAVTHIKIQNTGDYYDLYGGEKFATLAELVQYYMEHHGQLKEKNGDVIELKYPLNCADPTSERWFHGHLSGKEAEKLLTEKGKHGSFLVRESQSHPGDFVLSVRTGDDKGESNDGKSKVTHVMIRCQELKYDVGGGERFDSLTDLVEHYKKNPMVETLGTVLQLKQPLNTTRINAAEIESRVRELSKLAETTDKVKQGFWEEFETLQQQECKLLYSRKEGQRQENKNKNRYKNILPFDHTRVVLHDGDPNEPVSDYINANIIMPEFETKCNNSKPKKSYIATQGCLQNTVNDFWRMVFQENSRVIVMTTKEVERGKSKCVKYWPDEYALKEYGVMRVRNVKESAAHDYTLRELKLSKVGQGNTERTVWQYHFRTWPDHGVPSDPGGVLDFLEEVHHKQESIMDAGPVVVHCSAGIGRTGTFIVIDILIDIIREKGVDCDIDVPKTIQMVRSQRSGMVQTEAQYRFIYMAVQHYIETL

Structure (SMILES): NC[C@]1(c2ccccc2F)[C@@H]2CCN(c3cnc4c(-c5ccc6ncnn6c5)n[nH]c4n3)C[C@@H]21 [Example 327, ((1S,6R,7R)-3-(3-([1,2,4]triazolo[1,5-a]pyridin-6-yl)-1H-pyrazolo[3,4-b]pyrazin-6-yl)-7-(2-fluorophenyl)-3-azabicyclo[4.1.0]heptan-7-yl)methanamine]
- pIC50 [1]: > 6.30
- pIC50 ([2]; Homo sapiens, KYSE-520, 2 h): > 6.00

Structure (SMILES): NC[C@]1(c2ccccc2F)[C@@H]2CCN(c3cnc4c(-c5ccc6[nH]ccc6c5Cl)n[nH]c4n3)C[C@@H]21 [Example 405, ((1S,6R,7R)-3-(3-(4-chloro-1H-indol-5-yl)-1H-pyrazolo[3,4-b]pyrazin-6-yl)-7-(2-fluorophenyl)-3-azabicyclo[4.1.0]heptan-7-yl)methanamine]
- pIC50 [1]: > 6.30
- pIC50 ([2]; Homo sapiens, KYSE-520, 2 h): > 6.00

Structure (SMILES): Cc1csc([C@@]2(CN)[C@@H]3CN(c4cc(=O)n(-c5cccc(Cl)c5Cl)c(C)n4)C[C@@H]32)n1 [Example 433, 6-((1R,5S,6r)-6-(aminomethyl)-6-(4-methylthiazol-2-yl)-3-azabicyclo[3.1.0]hexan-3-yl)-3-(2,3-dichlorophenyl)-2-methylpyrimidin-4(3H)-one]
- pIC50 [1]: > 6.30
- pIC50 ([2]; Homo sapiens, KYSE-520, 2 h): > 6.00

Structure (SMILES): NC[C@]1(c2ccccc2F)[C@@H]2CCN(c3cnc4c(-c5ccc(F)c6[nH]c(=O)ccc56)n[nH]c4n3)C[C@@H]21 [Example 236, 5-(6-((1S,6R,7R)-7-(aminomethyl)-7-(2-fluorophenyl)-3-azabicyclo[4.1.0]heptan-3-yl)-1H-pyrazolo[3,4-b]pyrazin-3-yl)-8-fluoroquinolin-2(1H)-one]
- pIC50 [1]: > 6.30
- pIC50 ([2]; Homo sapiens, KYSE-520, 2 h): > 6.00

Structure (SMILES): NC[C@]1(c2ccccc2F)[C@@H]2CCN(c3cnc4c(-c5ccc(C(=O)O)c6ccccc56)n[nH]c4n3)C[C@@H]21 [Example 257, 4-(6-((1S,6R,7R)-7-(aminomethyl)-7-(2-fluorophenyl)-3-azabicyclo[4.1.0]heptan-3-yl)-1H-pyrazolo[3,4-b]pyrazin-3-yl)-1-naphthoic acid]
- pIC50 [1]: > 6.30
- pIC50 ([2]; Homo sapiens, KYSE-520, 2 h): < 5.30

Structure (SMILES): Cc1cc(C2(CN)C3CCN(c4nc5[nH]nc(-c6ccc7nn(C)cc7c6Cl)c5c(=O)n4C)CC32)no1 (stereo not shown) [Example 62, 6-(7-(aminomethyl)-7-(5-methylisoxazol-3-yl)-3-azabicyclo[4.1.0]heptan-3-yl)-3-(4-chloro-2-methyl-2H-indazol-5-yl)-5-methyl-1,5-dihydro-4H-pyrazolo[3,4-d]pyrimidin-4-one]
- pIC50 [1]: > 6.30
- pIC50 ([2]; Homo sapiens, KYSE-520, 2 h): 5.30 to 6.00

Structure (SMILES): Cn1cc2c(Cl)c(-c3n[nH]c4nc(N5C[C@@H]6[C@H](C5)[C@@]6(CN)c5ccccn5)cnc34)ccc2n1 [Example 491, ((1R,5S,6r)-3-(3-(4-chloro-2-methyl-2H-indazol-5-yl)-1H-pyrazolo[3,4-b]pyrazin-6-yl)-6-(pyridin-2-yl)-3-azabicyclo[3.1.0]hexan-6-yl)methanamine]
- pIC50 [1]: > 6.30
- pIC50 ([2]; Homo sapiens, KYSE-520, 2 h): > 6.00

Structure (SMILES): Cn1c(=O)[nH]c2cc(-c3n[nH]c4nc(N5CC[C@@H]6[C@H](C5)[C@@]6(CN)c5ccccc5F)cnc34)ccc21 [Example 289, 5-(6-((1S,6R,7R)-7-(aminomethyl)-7-(2-fluorophenyl)-3-azabicyclo[4.1.0]heptan-3-yl)-1H-pyrazolo[3,4-b]pyrazin-3-yl)-1-methyl-1,3-dihydro-2H-benzo[d]imidazol-2-one]
- pIC50 [1]: > 6.30
- pIC50 ([2]; Homo sapiens, KYSE-520, 2 h): > 6.00

Structure (SMILES): NCC1(c2nc(Cl)cs2)C2CCN(c3cnc4c(-c5ccc(F)c6ncccc56)n[nH]c4n3)CC21 (stereo not shown) [Example 446, (7-(4-chlorothiazol-2-yl)-3-(3-(8-fluoroquinolin-5-yl)-1H-pyrazolo[3,4-b]pyrazin-6-yl)-3-azabicyclo[4.1.0]heptan-7-yl)methanamine]
- pIC50 [1]: > 6.30
- pIC50 ([2]; Homo sapiens, KYSE-520, 2 h): > 6.00

Structure (SMILES): Cc1conc1C1(CN)C2CCN(c3cnc4c(-c5ccc6onc(C)c6c5)n[nH]c4n3)CC21 (stereo not shown) [Example 52, (3-(3-(3-methylbenzo[d]isoxazol-5-yl)-1H-pyrazolo[3,4-b]pyrazin-6-yl)-7-(4-methylisoxazol-3-yl)-3-azabicyclo[4.1.0]heptan-7-yl)methanamine]
- pIC50 [1]: > 6.30
- pIC50 ([2]; Homo sapiens, KYSE-520, 2 h): > 6.00

Structure (SMILES): NC[C@]1(c2ccccc2F)[C@@H]2CCN(c3cnc4c(-c5nccc6ncccc56)n[nH]c4n3)C[C@@H]21 [Example 153, ((1S,6R,7R)-3-(3-(1,6-naphthyridin-5-yl)-1H-pyrazolo[3,4-b]pyrazin-6-yl)-7-(2-fluorophenyl)-3-azabicyclo[4.1.0]heptan-7-yl)methanamine]
- pIC50 [1]: > 6.30
- pIC50 ([2]; Homo sapiens, KYSE-520, 2 h): > 6.00

Structure (SMILES): Cn1cc2ccc(-c3n[nH]c4nc(N5CC[C@@H]6[C@H](C5)[C@@]6(CN)c5ccccc5F)cnc34)c(Cl)c2n1 [Example 363, ((1S,6R,7R)-3-(3-(7-chloro-2-methyl-2H-indazol-6-yl)-1H-pyrazolo[3,4-b]pyrazin-6-yl)-7-(2-fluorophenyl)-3-azabicyclo[4.1.0]heptan-7-yl)methanamine]
- pIC50 [1]: > 6.30
- pIC50 ([2]; Homo sapiens, KYSE-520, 2 h): > 6.00

Structure (SMILES): COc1ccc(-c2n[nH]c3nc(N4CC[C@@H]5[C@H](C4)[C@@]5(CN)c4ccc(F)cc4F)cnc23)c2cccnc12 [Example 200, ((1S,6R,7R)-7-(2,4-difluorophenyl)-3-(3-(8-methoxyquinolin-5-yl)-1H-pyrazolo[3,4-b]pyrazin-6-yl)-3-azabicyclo[4.1.0]heptan-7-yl)methanamine]
- pIC50 [1]: > 6.30
- pIC50 ([2]; Homo sapiens, KYSE-520, 2 h): > 6.00

Structure (SMILES): NC[C@]1(c2ncccc2F)[C@@H]2CCN(c3cnc4c(-c5cccn6nccc56)n[nH]c4n3)C[C@@H]21 [Example 140, ((1S,6R,7S)-7-(3-fluoropyridin-2-yl)-3-(3-(pyrazolo[1,5-a]pyridin-4-yl)-1H-pyrazolo[3,4-b]pyrazin-6-yl)-3-azabicyclo[4.1.0]heptan-7-yl)methanamine]
- pIC50 [1]: > 6.30
- pIC50 ([2]; Homo sapiens, KYSE-520, 2 h): > 6.00

Structure (SMILES): COc1ccc(-c2n[nH]c3nc(N4CCC5C(C4)C5(CN)c4cc(C)on4)cnc23)c2cccnc12 (stereo not shown) [Example 22, (3-(3-(8-methoxyquinolin-5-yl)-1H-pyrazolo[3,4-b]pyrazin-6-yl)-7-(5-methylisoxazol-3-yl)-3-azabicyclo[4.1.0]heptan-7-yl)methanamine]
- pIC50 [1]: > 6.30
- pIC50 ([2]; Homo sapiens, KYSE-520, 2 h): > 6.00

Structure (SMILES): NC[C@]1(c2cccc(F)c2F)[C@@H]2CCN(c3cnc4c(-c5ccc(C(=O)O)c6ncccc56)n[nH]c4n3)C[C@@H]21 [Example 266, 5-(6-((1S,6R,7R)-7-(aminomethyl)-7-(2,3-difluorophenyl)-3-azabicyclo[4.1.0]heptan-3-yl)-1H-pyrazolo[3,4-b]pyrazin-3-yl)quinoline-8-carboxylic acid]
- pIC50 [1]: > 6.30
- pIC50 ([2]; Homo sapiens, KYSE-520, 2 h): > 6.00

Structure (SMILES): Cc1cc([C@@]2(CN)[C@@H]3CCN(c4cnc5c(-c6ccc7nn(C)cc7c6Cl)n[nH]c5n4)C[C@@H]32)no1 [Example 46, ((1S,6R,7S)-3-(3-(4-chloro-2-methyl-2H-indazol-5-yl)-1H-pyrazolo[3,4-b]pyrazin-6-yl)-7-(5-methylisoxazol-3-yl)-3-azabicyclo[4.1.0]heptan-7-yl)methanamine]
- pIC50 [1]: > 6.30
- pIC50 ([2]; Homo sapiens, KYSE-520, 2 h): > 6.00

Structure (SMILES): Cc1nccc(Sc2ncc(N3CC[C@@H]4[C@H](C3)[C@@]4(CN)c3cc(F)ccc3F)nc2N)c1F [Example 431, 6-((1S,6R,7R)-7-(aminomethyl)-7-(2,5-difluorophenyl)-3-azabicyclo[4.1.0]heptan-3-yl)-3-((3-fluoro-2-methylpyridin-4-yl)thio)pyrazin-2-amine]
- pIC50 [1]: > 6.30
- pIC50 ([2]; Homo sapiens, KYSE-520, 2 h): > 6.00

Structure (SMILES): Cc1csc([C@@]2(CN)[C@@H]3CN(c4cnc5c(-c6ccc7nscc7c6Cl)n[nH]c5n4)C[C@@H]32)n1 [Example 463]
- pIC50 [1]: > 6.30
- pIC50 [2]: > 6.00

Structure (SMILES): NC[C@]1(c2ccccc2F)[C@@H]2CCN(c3cnc4c(-c5ccc(-c6nn[nH]n6)cc5Cl)n[nH]c4n3)C[C@@H]21 [Example 285, ((1S,6R,7R)-3-(3-(2-chloro-4-(2H-tetrazol-5-yl)phenyl)-1H-pyrazolo[3,4-b]pyrazin-6-yl)-7-(2-fluorophenyl)-3-azabicyclo[4.1.0]heptan-7-yl)methanamine]
- pIC50 [1]: > 6.30
- pIC50 ([2]; Homo sapiens, KYSE-520, 2 h): < 5.30
